Data taken from patent publication US9056888B2 (priority 2011, dated 2015).
“Also recorded” adds a separate entry of the source. Like-named read-outs stand apart in the source and are kept apart here.

Assays:
[1] = tested on: HIV-1 VLP assembly (Pr55Gag); test: microbe, parasite or virus in culture; assay type: cell-based; conditions: for SI (ratio CC50:IC50): Table 2
Experimental: Aliquots of Sf9 cells (10^6) were infected with two recombinant baculoviruses at equal multiplicity of infection (MOI of 10 PFU/cell, each). One expressed the HIV-1 Gag precursor (AcMNPV-Pr55Gag or control, p6-deleted AcMNPV-GagΔp6), the other the control Vpr protein (AcMNPV-Vpr) or the LucVpr fusion (AcMNPV-LucVpr). […] To avoid any interference with a possible effect of DMSO, DMSO was kept constant in volume in the different samples. […] Cells were harvested at 48 h pi, and extracellular VLP released in the culture medium were quantitated using luciferase assay. Membrane-enveloped VLP were pelleted and resuspended in lysis KDT buffer (KDT: 0.1M potassium phosphate buffer, pH 7.8, 1 mM DTT, containing 0.2% Triton X100) for 30 min at 37° C. with vortexing every 10 min. Luciferase activity associated with VLP was measured as previously described [10], using a Lumat LB-9501 luminometer (Berthold Technologies, Bad Wildbad, Germany). […] To compensate for eventual negative effects of drugs on LucVpr expression, the luciferase activity was measured in the corresponding cell lysates, obtained after lysis of the pelleted cells with KDT buffer. The results were expressed as relative light units (RLU) per μg protein. The values of the ratio of VLP-associated to intracellular luciferase activity were plotted versus the inhibitor concentration.
Cell culture medium was then harvested at 48 h pi, subjected to the 2-step ultracentrifugation analysis, and each gradient fraction probed for Gag polyprotein and luciferase activity, as above. […] The gradient fractions corresponding to the peak of luciferase activity were pooled, and the VLP contained in these fractions were pelleted, lysed and assayed for luciferase content.
Drug treatment was maintained for a further 24 h, and VLP released in the cell culture medium were pelleted through a sucrose cushion [8]. The amounts of extracellular VLP recovered in the 48 h-pellets obtained in the presence of the different inhibitors were determined using the luciferase assays. After normalization to the luciferase activity determined in the corresponding cell lysates, the values of the ratio of VLP-incorporated to cell-associated luciferase activity were plotted versus the drug concentrations.

[2] = Cytotoxicity, MTT assay (Table 2); assay type: cell-based; conditions: for CC50: MTT assay, mean
Experimental: The cellular toxicity of the different compounds was evaluated using the MTT assays. […] The selectivity index (SI) was defined as the CC50 to IC50 ratio.

[3] = Cytotoxicity, MTT assay (Table 1); assay type: cell-based; conditions: mean
Experimental: The cellular toxicity of the different compounds was evaluated using the MTT assays. […] The selectivity index (SI) was defined as the ratio CC50: IC50 (Table 1).

HIV-1 = test: Infection inhibition assay, MAGIC-5B indicator cells; conditions: Table 1
Experimental: The evaluation of HIV-1 inhibition was carried out using MAGIC-5B indicator cells, which stably express the β-galactosidase reporter gene cloned downstream of the HIV-1 LTR promoter. Cells were plated at 8×10^4 cells per well, in 24-well plates and exposed to HIV-1 (x ng p24). Forty-eight hours post-infection, viral infectivity was monitored by quantification of o-nitrophenyl β-D-galactopyranoside hydrolysis from cell lysates (kit). β-galactosidase activity was normalized according to total protein content in the cell lysate. Control wells containing virus and cells only (no drug) and cells only (no virus or drug) were also prepared.

CA-SP1 cleavage = test: HIV-1 maturation inhibition assay, p25 (CA-SP1) to p24 (CA) processing in virion lysate; assay type: cell-based; conditions: Western blot (FIG. 2)
Experimental: Two days after transfection, virus-containing supernatants were concentrated by ultracentrifugation through a layer of 20% sucrose at 25 000 rpm for 2 h30. Viral pellets were then resuspended in RIPA lysis buffer [10 mM Tris-HCl (pH 7.4), 1 mM EDTA, 100 mM NaCl, 1% Triton X-100, 0.1% SDS, 0.25% sodium deoxycholate, 0.2% phenylmethylsulfonyl fluoride (PMSF)]. Viral proteins were loaded on a 12.5% SDS-PAGE gel.
To further elucidate the mechanism of action, viral samples used for infection assays were subjected to biochemical characterization (FIG. 2).

VLP assembly and budding [4] = test: Electron microscopy of AcMNPV-Gag-infected Sf9 cells; assay type: cell-based, HIV-1; conditions: 5 and 10 μg/ml for 24 h at 24 h pi
Experimental: Baculovirus-infected Sf9 cells were harvested at 48 h pi, pelleted, fixed with 2.5% glutaraldehyde in 0.1 M phosphate buffer, pH 7.5, post-fixed with osmium tetroxide (2% in H2O) and treated with 0.5% tannic acid solution in H2O. The specimens were dehydrated and embedded in Epon (Epon-812; Fulham, Latham, N.Y.). Ultrathin sections were stained with 2.6% alkaline lead citrate and 0.5% uranyl acetate in 50% ethanol, and post-stained with 0.5% uranyl acetate solution in H2O [8,9]. Grids were examined under a Jeol JEM-1400 electron microscope, equipped with an ORIUS™ digitalized camera (Gatan France, 78113-Grandchamp). For statistical EM analyses, a minimum of 30 grid squares containing 10 to 20 cell sections each were examined for counting VLP budding at the cell surface, or budding in intracellular vesicular compartment.
By contrast, control, untreated AcMNPV-Gag-infected Sf9 cells were decorated with VLP budding in abundance from the plasma membrane.

HIV-1 virion morphology = test: Thin-section electron microscopy of virions from pNL4-3 transfected 293T cells; assay type: cell-based; conditions: pNL4-3, 5 μg/ml (FIG. 3)
Experimental: Two days after transfection, 293T cells were processed for thin-layer electron microscopy as follows: cells were fixed in situ with 2.5% glutaraldehyde in cacodylate buffer (pH 7.4) for 60 min at 4° C. Cells were then post-fixed with 2% osmium tetroxide, washed in cacodylate buffer containing 0.5% tanic acid, and embedded in epon (Embed-812, Electron Microscopy Sciences Inc.). Sections were counterstained with uranyl acetate and lead citrate and examined with an Hitachi H7100 transmission electron microscope.
In the absence of compounds, cells transfected with pNL4-3 produced virus particles with the classical mature morphology characterized by the presence of condensed, conical cores (FIG. 3A).

Pr55Gag = biological target: T1, Pr55Gag (Human immunodeficiency virus type 1 group M subtype B, UniProt P03348); test: Chemical cross-linking of intracellular Pr55Gag with BS3; assay type: cell-based, HIV-1; conditions: Sf9 cells, 10 μg/ml
T1 construct: AcMNPV-Pr55Gag expressed the full-length wild type (WT) Gag polyprotein (Pr55Gag); expressed in transfected cells; host or cells: Spodoptera frugiperda Sf9 cells infected with recombinant baculovirus AcMNPV-Pr55Gag
Experimental: Aliquots of recombinant baculovirus-infected Sf9 cells (5×10^5 cells) untreated or treated with 16 at 10 ug/ml for 24 h at 24 h pi were centrifuged at low speed, resuspended in 200 μl of PBS containing the cross-linker bis(sulfosuccinimidyl)suberate (BS3; Pierce Biotechnology, Rockford, Ill.) at increasing molarities, ranging from 0 to 50 mM [12], and incubated in this buffer for 30 min at room temperature (RT). Cell samples were then centrifuged, resuspended and lysed in 200 μl 0.015 M NaCl, 0.5 mM phosphate buffer pH 7.3 containing BS3 at the same molarites as in the original mixtures, and further incubated for 30 min at RT. Cell lysates were mixed with 30 μl 6 times concentrated (6×) SDS-sample buffer without β-mercaptoethanol, heated to 100° C. for 1 min, and Gag proteins analyzed by SDS-PAGE and immunoblotting. […]
To further analyse the mechanism of the effect of 16 on Gag polyprotein assembly, untreated and 16-treated (10 μg/ml), Pr55Gag-expressing Sf9 cells were incubated with increasing concentrations of the chemical cross-linker BS3 at 48 h pi for 30 min at room temperature, then lysed in hypotonic medium in the presence of BS3 used in the same range of concentrations. The oligomeric status of the Gag proteins was assessed by SDS-PAGE and Western blot analysis, using anti-Gag antibody, peroxidase-labeled complementary antibody and enhanced chemiluminescence (ECL). […]

HIV-1 VLP = conditions: read-out: IC50 previously determined using immuno-radiochemical assay of VLP; reference [8]; cited from earlier work
VLP assembly and budding [5] = conditions: 10 μg/ml (17 μM), previous study [8]; cited from earlier work
[6] = Human immunodeficiency virus 1, read-out: IC50, inhibition of HIV-1 VLP assembly, Sf9 cells, mean
[7] = Human immunodeficiency virus 1, read-out: IC50, inhibition of HIV-1 VLP assembly, Sf9 cells, mean ± SEM, n = 4

SMILES | SI (ratio CC50:IC50) [1] | CC50 [2] [µM] | CC50 [3] [µM] | SI (CC50/IC50 ratio) (HIV-1) | inhibition of conversion of uncleaved p25 (CA-SP1) to mature p24 (CA) (CA-SP1 cleavage) | virus morphology / virion maturation by EM (HIV-1 virion morphology) | further results
C=C(C)[C@@H]1CC[C@]2(C(=O)O)CC[C@]3(C)[C@H](CC[C@@H]4[C@@]5(C)CC[C@H](O)C(C)(C)[C@@H]5CC[C@]43C)[C@@H]12 [BA, betulinic acid, reference compound] | 1.1 | 43.8 | 4.52 | 0.85 | – | – | –
C=C(C)[C@@H]1CC[C@]2(C(=O)NCC(=O)O)CC[C@]3(C)C(CCC4[C@@]5(C)CC[C@H](OC(=O)CC(C)(C)C(=O)O)C(C)(C)C5CC[C@]43C)C12 (stereo partly drawn) [Compound 12, N-[3β-(3-carboxy-3-methylbutanoyloxy)-lup-20,29-en-28-oyl]-glycine] | – | – | – | – | – | – | IC50 ([1]; Sf9 cells, mean, read-out: IC50, inhibition of HIV-1 VLP assembly): 5.9 µM
C=C(C)[C@@H]1CC[C@]2(C(=O)NCC(=O)O)CC[C@]3(C)[C@H](CC[C@@H]4[C@@]5(C)CC[C@H](OC(=O)CC(C)(C)C(=O)O)C(C)(C)[C@@H]5CC[C@]43C)[C@@H]12 [Compound 12, N-[3β-(3-carboxy-3-methylbutanoyloxy)-lup-20,29-en-28-oyl]-glycine] | 5.3 | 31.1 | 49.5 | 309.37 | inhibit the CA-SP1 cleavage; also recorded: accumulation of p25 is observed | lacked conical cores | IC50 [1, 6]: 5.9 µM; IC50 [1, 7]: 3.8 ± 1.6 µg/mL; effect on VLP assembly and budding by EM (VLP assembly and budding [4]): net inhibitory effect on VLP assembly and budding
C=C(C)[C@@H]1CC[C@]2(C(=O)NC(CCCCNC(=O)OC(C)(C)C)C(=O)O)CC[C@]3(C)[C@H](CC[C@@H]4[C@@]5(C)CC[C@H](OC(=O)CC(C)(C)C(=O)O)C(C)(C)[C@@H]5CC[C@]43C)[C@@H]12 (stereo partly drawn) [Compound 15, N^2—[O^3-(3-carboxy-3-methylbutyryl)betulinyl]-N^6-Boc-L-lysine] | 13.0 | 24.7 | 33 | 199.41 | inhibit the CA-SP1 cleavage; also recorded: accumulation of p25 is observed | lacked conical cores | IC50 [1, 6]: 1.9 µM; IC50 [1, 7]: 1 to 2 µg/mL; IC50, inhibition of HIV-1 VLP assembly ([1]; Sf9 cells, mean ± SEM, n = 4): 1.6 ± 0.5 µg/mL; effect on VLP assembly and budding by EM (VLP assembly and budding [4]): net inhibitory effect on VLP assembly and budding
C=C(C)[C@@H]1CC[C@]2(C(=O)NCCN)CC[C@]3(C)C(CCC4[C@@]5(C)CC[C@H](OC(=O)CC(C)(C)C(=O)O)C(C)(C)C5CC[C@]43C)C12 (stereo partly drawn) [Compound 16, 4-({28-[(2-aminoethyl)amino]-28-oxolup-20,29-en-3β-yl}oxy)-2,2-dimethyl-4-oxobutanoic acid] | – | – | – | – | – | – | level of cytotoxicity compared to the other drugs [2]: lowest level of cytotoxicity
C=C(C)[C@@H]1CC[C@]2(C(=O)NCCN)CC[C@]3(C)[C@H](CC[C@@H]4[C@@]5(C)CC[C@H](OC(=O)CC(C)(C)C(=O)O)C(C)(C)[C@@H]5CC[C@]43C)[C@@H]12 [Compound 16, 4-({28-[(2-aminoethyl)amino]-28-oxolup-20,29-en-3β-yl}oxy)-2,2-dimethyl-4-oxobutanoic acid] | – | 120 | 33.9 | – | inhibit the CA-SP1 cleavage; also recorded: accumulation of p25 is observed | lacked conical cores | Gag oligomerization status after BS3 cross-linking (Pr55Gag): favored the occurrence and/or the stability and persistence of Gag trimers
C=C(C)[C@@H]1CC[C@]2(C(=O)NC(CCCCN)C(=O)O)CC[C@]3(C)[C@H](CC[C@@H]4[C@@]5(C)CC[C@H](OC(=O)CC(C)(C)C(=O)O)C(C)(C)[C@@H]5CC[C@]43C)[C@@H]12 (stereo partly drawn) [Compound 17, N^2-[3β-(3-carboxy-3-methylbutanoyloxy)lup-20,29-en-28-oyl]-L-lysine] | – | – | – | – | – | – | VLP / particle assembly inhibition (in words) ([1]; FIG. 6): resembled that of 12
C=C(C)[C@@H]1CC[C@]2(C(=O)O)CC[C@]3(C)[C@H](CC[C@@H]4[C@@]5(C)CC[C@H](OC(=O)CC(C)(C)C(=O)O)C(C)(C)[C@@H]5CC[C@]43C)[C@@H]12 [DSB, 3-O-(3′,3′-dimethylsuccinyl)-betulinic acid, reference compound] | – | – | – | – | – | lacked conical cores | inhibition of conversion of uncleaved p25 (CA-SP1) to mature p24 (CA) (CA-SP1 cleavage; listed as 2): inhibit the CA-SP1 cleavage; also recorded: accumulation of p25 is observed; IC50 ([1]; Human immunodeficiency virus 1, read-out: IC50, VLP formation): 3.8 to 4.2 µM; IC50 ([1]; Human immunodeficiency virus 1, read-out: IC50, inhibition of HIV-1 VLP assembly): 3 ± 1 µg/mL; IC50 ([1]; Human immunodeficiency virus 1, read-out: concentration for 50% inhibition of VLP formation): 2.2 to 2.5 µg/mL; IC50 (HIV-1 VLP): 8 to 10 µM; effect on VLP budding and egress (VLP assembly and budding [5]): totally abolished VLP budding and egress
